The target of experiment [1] is T1, purple membrane (PM) (Halobacterium salinarum, UniProt P02945).
T1 construct: The culture of Halobacterium halobium and PM isolation were carried out following a standard procedure; endogenous in cells; host or cells: Halobacterium halobium culture; purple membrane isolated by the standard procedure (Oesterhelt & Stoeckenius)
T1 sequence (P02945 14-261 limits assumed): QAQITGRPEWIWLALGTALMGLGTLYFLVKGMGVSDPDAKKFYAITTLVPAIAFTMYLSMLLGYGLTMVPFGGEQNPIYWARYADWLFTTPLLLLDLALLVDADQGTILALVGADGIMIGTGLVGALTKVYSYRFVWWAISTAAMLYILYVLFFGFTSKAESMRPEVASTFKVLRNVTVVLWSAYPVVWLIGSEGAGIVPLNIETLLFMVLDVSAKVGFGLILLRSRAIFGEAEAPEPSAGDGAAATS
Put plainly: SPR binding of peptide to PM (KxV5-type SPR, Langmuir adsorption model). The note with it: PM patches as mobile phase.
Description: Binding affinity of peptide with PM was tested by using surface plasmon resonance (SPR), which can provide real-time monitoring of biomolecular interactions [46, 47]. The binding constant between PM and the peptide was calculated based on Langmuir adsorption, in which the following equation is applicable. (4) 1/R=1/(RmaxKACA)+1/Rmax Rmax is the maximum coverage, KA is the equilibrium adsorption constant, and CA is the concentration of adsorbate solution [48].
The culture of Halobacterium halobium and PM isolation were carried out following a standard procedure [49]. Purified PM was suspended in double-distilled water and stored at 4 °C. The buffer used in the experiments consisted of 10 mM Tris HCl with a pH value of 8.0.
The characterization of the peptides-PM binding interaction was accomplished with the surface plasmon resonance technique (KxV5-type SPR, Plexera, Woodinville, WA, USA). […] The peptides were introduced to the surface of the gold chip in advance as stationary phase. SPR chip was modified by thiol molecules containing carboxyl to form self-assembled layer. 5 mL of carboxyl thiols (dithiosole-COOH, 1 μM) and hydroxy-dithiol molecule (dithiosole-OH, 10 μM) mixing ethanol solution was dropped on a SPR chip surface, and then the remaining liquid was removed by suction after 15 min of adsorption. After rinsing with ethanol, the carboxyl-terminated SAM on the chip surface underwent EDC/NHS activation. PM patches were introduced as a mobile phase. Based on the Langmuir adsorption model, the kinetic parameters and the binding constant were calculated using Plexera software.

In experiment [2] the target is T1, purple membrane (PM). The experiment can be described thus: Directional PM assembly on Peptide-3 modified silicon, AFM and surface potential. The note with it: side attributed from surface potential; PM adsorbed on peptide modified silicon (EDC/NHS). Here is the method: The peptide was modified on silicon substrates via 1-ethyl-3-(3-(dimethylamino)propyl) carbodiimide (EDC)/N-hydroxysuccinimide(NHS) coupling for an oriented PM assembly. The silicon surface is treated with oxygen plasma first for hydroxyl group generation and then followed by (3-aminopropyl)triethoxysilane (APTES) modification for an amino-terminated surface. Then, introduction of succine anhydride leads to a carboxyl-terminated self-assembled monolayer (SAM) on the silicon surface, followed by EDC/NHS activation to immobilized peptides onto the silicon surface. […] This observation is consistent with the SPR measurements on the binding affinity of peptide with PM. The surface potential analyses of PM patches on silicon substrate are labeled by lines in EFM-potential images and their sectional analyses were done. […]
The topographic and surface potential images were obtained using a Bruker Dimension Icon microscope in a two-pass operation mode slightly different from the EFM measurement mentioned above. […] The deflection amplitude of the probe in lift mode was monitored, which was linearly proportional to the electrical force imposed on the probe. […]

No end group written: not given here.

As to GARGIMIGTGLVGALTDVYSYDF, the kon in experiment [1] (peptide immobilised on gold chip (carboxyl-terminated SAM, EDC/NHS), Plexera software, buffer used in the experiments 10 mM Tris HCl pH 8.0, read-out: adsorption rate constant ka) was 283 M⁻¹ s⁻¹. The koff in experiment [1] (peptide immobilised on gold chip (carboxyl-terminated SAM, EDC/NHS), Plexera software, buffer used in the experiments 10 mM Tris HCl pH 8.0, read-out: dissociation rate constant kd) turned out to be 0.00238 s⁻¹. Further, in experiment [1] (peptide immobilised on gold chip, buffer used in the experiments 10 mM Tris HCl pH 8.0, unit inferred, read-out: equilibrium dissociation constant KD), the Kd (usually the equilibrium constant for the complex coming apart) turned out to be 8.43 µM. In addition, the “orientation of PM on peptide-modified silicon” value in experiment [2] was “identical orientation of the PM on surface”.

The record behind these values is PMC5245739, “Nanoscale Electric Characteristics and Oriented Assembly of Halobacterium salinarum Membrane Revealed by Electric Force Microscopy” (Nanomaterials, 2016).
